According to PubChem BioAssay (NCI):
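Method: 48-hour compound exposure of cells in 96-well plates, five concentrations, linear interpolation of endpoints. Definition used: TGI = concentration required for complete inhibition of growth.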

How the values were obtained:
Test in all cases: growth of human tumour cells (NCI), 48 h
SF-295 CNS = test system: SF-295 CNS
M14 melanoma = test system: M14 melanoma
PC-3 prostate = test system: PC-3 prostate
MDA-MB-435 = test system: MDA-MB-435
OVCAR-3 ovarian = test system: OVCAR-3 ovarian
HL-60(TB) leukemia = test system: HL-60(TB) leukemia
UACC-62 melanoma = test system: UACC-62 melanoma
KM12 colon = test system: KM12 colon
T-47D breast = test system: T-47D breast
786-0 renal = test system: 786-0 renal
SW-620 colon = test system: SW-620 colon
HCT-15 colon = test system: HCT-15 colon
A498 renal = test system: A498 renal
NCI/ADR-RES ovarian = test system: NCI/ADR-RES ovarian
UACC-257 melanoma = test system: UACC-257 melanoma
HCT-116 colon = test system: HCT-116 colon
HOP-62 NSCLC = test system: HOP-62 NSCLC
SK-MEL-5 melanoma = test system: SK-MEL-5 melanoma
BT-549 breast = test system: BT-549 breast
IGROV1 ovarian = test system: IGROV1 ovarian
SK-MEL-28 melanoma = test system: SK-MEL-28 melanoma
SNB-75 CNS = test system: SNB-75 CNS
NCI-H23 lung = test system: NCI-H23 lung
CCRF-CEM leukemia = test system: CCRF-CEM leukemia
RXF 393 renal = test system: RXF 393 renal
COLO 205 colon = test system: COLO 205 colon
SNB-19 CNS = test system: SNB-19 CNS
DU-145 prostate = test system: DU-145 prostate
SN12C renal = test system: SN12C renal
TK-10 renal = test system: TK-10 renal
RPMI-8226 leukemia = test system: RPMI-8226 leukemia
HOP-92 NSCLC = test system: HOP-92 NSCLC
NCI-H522 lung = test system: NCI-H522 lung
MDA-N = test system: MDA-N
SK-OV-3 ovarian = test system: SK-OV-3 ovarian
EKVX NSCLC = test system: EKVX NSCLC
NCI-H460 lung = test system: NCI-H460 lung
A549 NSCLC = test system: A549 NSCLC
MALME-3M melanoma = test system: MALME-3M melanoma
NCI-H226 lung = test system: NCI-H226 lung
MCF7 breast = test system: MCF7 breast
SK-MEL-2 melanoma = test system: SK-MEL-2 melanoma
SF-268 CNS = test system: SF-268 CNS
HS 578T breast = test system: HS 578T breast
OVCAR-4 ovarian = test system: OVCAR-4 ovarian
OVCAR-8 ovarian = test system: OVCAR-8 ovarian
OVCAR-5 ovarian = test system: OVCAR-5 ovarian
MDA-MB-231 breast = test system: MDA-MB-231 breast
U251 CNS = test system: U251 CNS
MOLT-4 leukemia = test system: MOLT-4 leukemia
HT29 colon = test system: HT29 colon
HCC-2998 colon = test system: HCC-2998 colon
CAKI-1 renal = test system: CAKI-1 renal
ACHN renal = test system: ACHN renal
SF-539 CNS = test system: SF-539 CNS
LOX IMVI melanoma = test system: LOX IMVI melanoma
K-562 leukemia = test system: K-562 leukemia
UO-31 renal = test system: UO-31 renal

`CCSc1n/c(=C\c2ccc(N(C)C)cc2)c2nnnn12` was tested, and the TGI (SF-295 CNS) was over 100 µM, the TGI (M14 melanoma) was over 100 µM and the TGI (PC-3 prostate) was over 100 µM. The TGI (MDA-MB-435) was over 100 µM, the TGI (OVCAR-3 ovarian) was over 100 µM and the TGI (HL-60(TB) leukemia) was over 100 µM. It also gave a TGI (UACC-62 melanoma) of over 100 µM, a TGI (KM12 colon) of over 100 µM and a TGI (T-47D breast) of over 100 µM. The TGI (786-0 renal) was over 100 µM, the TGI (SW-620 colon) was over 100 µM and the TGI (HCT-15 colon) was over 100 µM. The TGI (A498 renal) was over 100 µM, the TGI (NCI/ADR-RES ovarian) was over 100 µM and the TGI (UACC-257 melanoma) was over 100 µM. It also gave a TGI (HCT-116 colon) of over 100 µM, a TGI (HOP-62 NSCLC) of over 100 µM and a TGI (SK-MEL-5 melanoma) of over 100 µM. The TGI (BT-549 breast) was over 100 µM, the TGI (IGROV1 ovarian) was over 100 µM and the TGI (SK-MEL-28 melanoma) was over 100 µM. It also gave a TGI (SNB-75 CNS) of over 100 µM, a TGI (NCI-H23 lung) of over 100 µM and a TGI (CCRF-CEM leukemia) of over 100 µM. It also gave a TGI (RXF 393 renal) of over 100 µM, a TGI (COLO 205 colon) of over 100 µM and a TGI (SNB-19 CNS) of over 100 µM. For the same compound, the TGI (DU-145 prostate) was over 100 µM, the TGI (SN12C renal) was over 100 µM and the TGI (TK-10 renal) was over 100 µM. For the same compound, the TGI (RPMI-8226 leukemia) was over 100 µM, the TGI (HOP-92 NSCLC) was over 100 µM and the TGI (NCI-H522 lung) was over 100 µM. It also gave a TGI (MDA-N) of over 100 µM, a TGI (SK-OV-3 ovarian) of over 100 µM and a TGI (EKVX NSCLC) of over 100 µM. It also gave a TGI (NCI-H460 lung) of over 100 µM, a TGI (A549 NSCLC) of over 100 µM and a TGI (MALME-3M melanoma) of over 100 µM. For the same compound, the TGI (NCI-H226 lung) was over 100 µM, the TGI (MCF7 breast) was over 100 µM and the TGI (SK-MEL-2 melanoma) was over 100 µM. For the same compound, the TGI (SF-268 CNS) was over 100 µM, the TGI (HS 578T breast) was over 100 µM and the TGI (OVCAR-4 ovarian) was over 100 µM. The TGI (OVCAR-8 ovarian) was over 100 µM, the TGI (OVCAR-5 ovarian) was over 100 µM and the TGI (MDA-MB-231 breast) was over 100 µM. For the same compound, the TGI (U251 CNS) was over 100 µM, the TGI (MOLT-4 leukemia) was over 100 µM and the TGI (HT29 colon) was over 100 µM. The TGI (HCC-2998 colon) was over 100 µM, the TGI (CAKI-1 renal) was over 100 µM and the TGI (ACHN renal) was over 100 µM.

`Cc1cccc2c(NCCCN(C)C)c3c([N+](=O)[O-])ccc(C)c3nc12` was tested, and the TGI (SF-295 CNS) was 0.451 µM, the TGI (M14 melanoma) was 0.297 µM and the TGI (PC-3 prostate) was 0.259 µM. For the same compound, the TGI (MDA-MB-435) was 0.492 µM, the TGI (SF-539 CNS) was 1.12 µM and the TGI (OVCAR-3 ovarian) was 0.357 µM. The TGI (HL-60(TB) leukemia) was 1.39 µM, the TGI (UACC-62 melanoma) was 0.284 µM and the TGI (KM12 colon) was 3.23 µM. It also gave a TGI (T-47D breast) of 0.758 µM, a TGI (786-0 renal) of 0.573 µM and a TGI (SW-620 colon) of 6 µM. The TGI (HCT-15 colon) was 0.592 µM, the TGI (A498 renal) was 0.0269 µM and the TGI (NCI/ADR-RES ovarian) was 3.37 µM. For the same compound, the TGI (UACC-257 melanoma) was 0.4 µM, the TGI (HCT-116 colon) was 0.821 µM and the TGI (HOP-62 NSCLC) was 0.265 µM. For the same compound, the TGI (SK-MEL-5 melanoma) was 0.251 µM, the TGI (LOX IMVI melanoma) was 0.607 µM and the TGI (BT-549 breast) was 0.858 µM. It also gave a TGI (IGROV1 ovarian) of 0.666 µM, a TGI (SK-MEL-28 melanoma) of 5.87 µM and a TGI (SNB-75 CNS) of 0.491 µM. For the same compound, the TGI (NCI-H23 lung) was 0.16 µM, the TGI (CCRF-CEM leukemia) was over 100 µM and the TGI (RXF 393 renal) was 0.19 µM. For the same compound, the TGI (COLO 205 colon) was 0.218 µM, the TGI (SNB-19 CNS) was 2.02 µM and the TGI (DU-145 prostate) was 0.651 µM. The TGI (SN12C renal) was 0.948 µM, the TGI (TK-10 renal) was 0.709 µM and the TGI (RPMI-8226 leukemia) was 3.17 µM. It also gave a TGI (HOP-92 NSCLC) of 0.416 µM, a TGI (NCI-H522 lung) of 0.12 µM and a TGI (K-562 leukemia) of 3.94 µM. It also gave a TGI (MDA-N) of 0.498 µM, a TGI (SK-OV-3 ovarian) of 0.982 µM and a TGI (EKVX NSCLC) of 0.36 µM. It also gave a TGI (NCI-H460 lung) of 0.141 µM, a TGI (UO-31 renal) of 0.492 µM and a TGI (A549 NSCLC) of 0.778 µM. The TGI (MALME-3M melanoma) was 0.375 µM, the TGI (NCI-H226 lung) was 0.458 µM and the TGI (MCF7 breast) was 0.173 µM. The TGI (SK-MEL-2 melanoma) was 0.285 µM, the TGI (SF-268 CNS) was 1.48 µM and the TGI (HS 578T breast) was 2.96 µM. The TGI (OVCAR-4 ovarian) was 0.554 µM, the TGI (OVCAR-8 ovarian) was 1.58 µM and the TGI (OVCAR-5 ovarian) was 0.744 µM. It also gave a TGI (MDA-MB-231 breast) of 0.601 µM, a TGI (U251 CNS) of 0.741 µM and a TGI (MOLT-4 leukemia) of 1.15 µM. The TGI (HT29 colon) was 1.39 µM, the TGI (HCC-2998 colon) was under 0.0454 µM and the TGI (CAKI-1 renal) was 2.61 µM. For the same compound, the TGI (ACHN renal) was 0.332 µM.

Compound `CC1CC2(OC2C)C(=O)OC2CCN(C)C/C=C(/COC(=O)C1(C)O)C2=O` (stereo not drawn) has a TGI (SF-295 CNS) of over 100 µM, a TGI (M14 melanoma) of over 100 µM and a TGI (PC-3 prostate) of over 100 µM. The TGI (MDA-MB-435) was over 100 µM, the TGI (SF-539 CNS) was over 100 µM and the TGI (OVCAR-3 ovarian) was over 100 µM. It also gave a TGI (HL-60(TB) leukemia) of over 100 µM, a TGI (UACC-62 melanoma) of over 100 µM and a TGI (KM12 colon) of over 100 µM. For the same compound, the TGI (T-47D breast) was over 100 µM, the TGI (786-0 renal) was over 100 µM and the TGI (SW-620 colon) was over 100 µM. The TGI (HCT-15 colon) was over 100 µM, the TGI (A498 renal) was over 100 µM and the TGI (NCI/ADR-RES ovarian) was over 100 µM. For the same compound, the TGI (UACC-257 melanoma) was over 100 µM, the TGI (HCT-116 colon) was over 100 µM and the TGI (HOP-62 NSCLC) was over 100 µM. For the same compound, the TGI (SK-MEL-5 melanoma) was over 100 µM, the TGI (LOX IMVI melanoma) was over 100 µM and the TGI (BT-549 breast) was over 100 µM. The TGI (IGROV1 ovarian) was over 100 µM, the TGI (SK-MEL-28 melanoma) was over 100 µM and the TGI (SNB-75 CNS) was over 100 µM. For the same compound, the TGI (NCI-H23 lung) was over 100 µM, the TGI (CCRF-CEM leukemia) was over 100 µM and the TGI (RXF 393 renal) was over 100 µM. For the same compound, the TGI (COLO 205 colon) was over 100 µM, the TGI (SNB-19 CNS) was over 100 µM and the TGI (DU-145 prostate) was over 100 µM. It also gave a TGI (SN12C renal) of over 100 µM, a TGI (TK-10 renal) of over 100 µM and a TGI (RPMI-8226 leukemia) of over 100 µM. It also gave a TGI (HOP-92 NSCLC) of over 100 µM, a TGI (NCI-H522 lung) of over 100 µM and a TGI (K-562 leukemia) of over 100 µM. It also gave a TGI (MDA-N) of over 100 µM, a TGI (SK-OV-3 ovarian) of over 100 µM and a TGI (EKVX NSCLC) of over 100 µM. The TGI (NCI-H460 lung) was over 100 µM, the TGI (UO-31 renal) was over 100 µM and the TGI (A549 NSCLC) was over 100 µM. It also gave a TGI (MALME-3M melanoma) of over 100 µM, a TGI (MCF7 breast) of over 100 µM and a TGI (SK-MEL-2 melanoma) of over 100 µM. The TGI (SF-268 CNS) was over 100 µM, the TGI (HS 578T breast) was over 100 µM and the TGI (OVCAR-4 ovarian) was over 100 µM. The TGI (OVCAR-8 ovarian) was over 100 µM, the TGI (OVCAR-5 ovarian) was over 100 µM and the TGI (MDA-MB-231 breast) was over 100 µM. It also gave a TGI (U251 CNS) of over 100 µM, a TGI (HT29 colon) of over 100 µM and a TGI (HCC-2998 colon) of over 100 µM. For the same compound, the TGI (CAKI-1 renal) was over 100 µM and the TGI (ACHN renal) was over 100 µM.
